From doi:10.1101/2021.04.08.439011v1 (biorxiv, 2021)
Where two headings read alike, the source gives them in different places.

How the values were obtained:
DYRK1A = DYRK1A (Homo sapiens, UniProt Q13627); details: 0.1 µM; binder
MEK6 = MEK6 (Homo sapiens, UniProt P52564); details: 0.1 µM; binder
DYRK2 = DYRK2 (Homo sapiens, UniProt Q92630); details: 0.1 µM; binder
BUB1 = BUB1 (Homo sapiens, UniProt O43683); details: 0.1 µM; binder
LRRK2 = LRRK2 (Homo sapiens, UniProt Q5S007); details: 0.1 µM; binder
MAP3K15 = MAP3K15 (Homo sapiens, UniProt Q6ZN16); details: 0.1 µM; binder
MAP3K15, sequence (Q6ZN16 whole entry): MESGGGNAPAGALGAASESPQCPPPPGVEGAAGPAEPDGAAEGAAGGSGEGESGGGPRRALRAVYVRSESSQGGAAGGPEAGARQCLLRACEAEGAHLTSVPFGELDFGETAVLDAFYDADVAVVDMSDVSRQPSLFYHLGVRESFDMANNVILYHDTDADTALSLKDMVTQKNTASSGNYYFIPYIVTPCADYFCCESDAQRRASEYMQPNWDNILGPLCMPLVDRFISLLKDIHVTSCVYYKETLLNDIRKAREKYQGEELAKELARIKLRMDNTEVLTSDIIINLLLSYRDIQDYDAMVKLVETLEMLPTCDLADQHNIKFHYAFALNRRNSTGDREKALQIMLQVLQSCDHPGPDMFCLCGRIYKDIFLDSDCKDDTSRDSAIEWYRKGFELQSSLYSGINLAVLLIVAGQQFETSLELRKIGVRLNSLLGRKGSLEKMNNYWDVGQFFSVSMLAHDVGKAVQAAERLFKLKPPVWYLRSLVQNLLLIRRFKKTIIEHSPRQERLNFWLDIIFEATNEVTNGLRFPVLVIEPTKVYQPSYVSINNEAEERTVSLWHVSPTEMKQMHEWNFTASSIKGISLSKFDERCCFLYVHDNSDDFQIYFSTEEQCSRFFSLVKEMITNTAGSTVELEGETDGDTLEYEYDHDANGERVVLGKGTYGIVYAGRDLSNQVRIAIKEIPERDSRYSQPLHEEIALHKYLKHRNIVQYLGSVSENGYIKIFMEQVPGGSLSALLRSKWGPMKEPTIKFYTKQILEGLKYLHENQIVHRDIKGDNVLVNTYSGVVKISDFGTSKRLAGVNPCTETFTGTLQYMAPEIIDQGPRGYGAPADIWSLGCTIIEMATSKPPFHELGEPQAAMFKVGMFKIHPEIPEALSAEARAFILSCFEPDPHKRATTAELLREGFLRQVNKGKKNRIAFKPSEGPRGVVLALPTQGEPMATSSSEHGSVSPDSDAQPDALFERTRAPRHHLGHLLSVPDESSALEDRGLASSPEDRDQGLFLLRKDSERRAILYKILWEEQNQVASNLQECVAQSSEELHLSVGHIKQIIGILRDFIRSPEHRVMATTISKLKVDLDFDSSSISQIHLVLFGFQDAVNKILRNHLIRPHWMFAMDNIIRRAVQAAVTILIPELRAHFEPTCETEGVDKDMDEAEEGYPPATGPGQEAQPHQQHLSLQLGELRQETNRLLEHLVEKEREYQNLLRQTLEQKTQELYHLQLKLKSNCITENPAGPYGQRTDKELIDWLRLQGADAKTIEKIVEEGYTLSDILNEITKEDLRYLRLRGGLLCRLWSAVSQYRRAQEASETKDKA

WNK4 = WNK4 (Homo sapiens, UniProt Q96J92); details: 0.1 µM; binder
WNK4, sequence (Q96J92 whole entry): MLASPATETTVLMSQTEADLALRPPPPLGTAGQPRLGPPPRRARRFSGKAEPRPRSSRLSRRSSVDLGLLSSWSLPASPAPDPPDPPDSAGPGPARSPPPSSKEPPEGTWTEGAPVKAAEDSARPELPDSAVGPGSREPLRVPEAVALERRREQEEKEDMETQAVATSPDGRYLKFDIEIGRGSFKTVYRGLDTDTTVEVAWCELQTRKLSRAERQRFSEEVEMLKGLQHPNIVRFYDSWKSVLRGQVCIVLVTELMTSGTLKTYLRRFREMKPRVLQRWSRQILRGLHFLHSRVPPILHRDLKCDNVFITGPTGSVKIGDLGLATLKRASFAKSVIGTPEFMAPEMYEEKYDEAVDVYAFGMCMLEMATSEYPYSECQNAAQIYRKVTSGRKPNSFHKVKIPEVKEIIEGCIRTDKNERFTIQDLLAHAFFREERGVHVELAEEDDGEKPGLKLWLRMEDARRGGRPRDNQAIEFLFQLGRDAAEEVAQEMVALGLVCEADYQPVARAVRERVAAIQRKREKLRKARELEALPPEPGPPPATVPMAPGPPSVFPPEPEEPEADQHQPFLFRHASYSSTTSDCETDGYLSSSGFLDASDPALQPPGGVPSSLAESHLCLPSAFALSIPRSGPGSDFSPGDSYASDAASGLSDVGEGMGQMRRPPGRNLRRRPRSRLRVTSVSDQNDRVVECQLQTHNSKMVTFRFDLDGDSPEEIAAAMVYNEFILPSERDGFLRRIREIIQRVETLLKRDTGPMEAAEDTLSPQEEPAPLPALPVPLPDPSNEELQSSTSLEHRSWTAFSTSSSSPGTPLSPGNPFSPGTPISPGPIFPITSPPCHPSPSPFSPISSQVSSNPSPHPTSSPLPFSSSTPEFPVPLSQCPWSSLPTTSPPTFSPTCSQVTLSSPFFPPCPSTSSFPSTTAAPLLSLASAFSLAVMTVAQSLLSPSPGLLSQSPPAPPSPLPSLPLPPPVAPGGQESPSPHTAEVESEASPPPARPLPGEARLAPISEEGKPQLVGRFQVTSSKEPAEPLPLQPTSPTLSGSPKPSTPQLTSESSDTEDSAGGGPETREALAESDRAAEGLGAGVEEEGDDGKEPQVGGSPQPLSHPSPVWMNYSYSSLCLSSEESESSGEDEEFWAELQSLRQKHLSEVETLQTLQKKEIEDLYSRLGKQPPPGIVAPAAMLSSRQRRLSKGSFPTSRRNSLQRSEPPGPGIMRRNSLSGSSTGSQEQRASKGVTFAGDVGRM

EPHA3 = EPHA3 (Homo sapiens, UniProt P29320); details: 0.1 µM; binder
CSK = CSK (Homo sapiens, UniProt P41240); details: 0.1 µM; binder
EGFR(G719S) = EGFR(G719S) (Homo sapiens, UniProt P00533, G719S); details: 0.1 µM; binder
HIPK4 = HIPK4 (Homo sapiens, UniProt Q8NE63); details: 0.1 µM; binder
JNK1 = JNK1 (Homo sapiens, UniProt P45983); details: 0.1 µM; binder
DAPK1 = DAPK1 (Homo sapiens, UniProt P53355); details: 0.1 µM; binder
ABL1(F317L) = ABL1(F317L) (Homo sapiens, UniProt P00519, F317L); details: 0.1 µM, binder
MKNK1 = MKNK1 (Homo sapiens, UniProt Q9BUB5); details: 0.1 µM; binder
STK39 = STK39 (Homo sapiens, UniProt Q9UEW8); details: 0.1 µM; binder
CLK4 = CLK4 (Homo sapiens, UniProt Q9HAZ1); details: 0.1 µM; binder
CLK4, sequence (Q9HAZ1 whole entry): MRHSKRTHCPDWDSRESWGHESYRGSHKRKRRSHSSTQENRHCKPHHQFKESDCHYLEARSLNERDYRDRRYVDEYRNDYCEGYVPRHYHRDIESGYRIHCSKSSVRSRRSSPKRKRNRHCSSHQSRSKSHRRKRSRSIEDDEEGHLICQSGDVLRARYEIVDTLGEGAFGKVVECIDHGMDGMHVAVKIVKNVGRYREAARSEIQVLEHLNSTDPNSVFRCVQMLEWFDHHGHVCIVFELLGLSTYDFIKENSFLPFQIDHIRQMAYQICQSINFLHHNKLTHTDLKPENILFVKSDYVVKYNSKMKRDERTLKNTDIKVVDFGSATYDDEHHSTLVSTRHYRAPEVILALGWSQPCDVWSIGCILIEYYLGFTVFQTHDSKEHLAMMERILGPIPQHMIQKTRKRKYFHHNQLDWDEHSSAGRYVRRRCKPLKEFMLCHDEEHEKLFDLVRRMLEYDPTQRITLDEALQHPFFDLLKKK

PLK1 = PLK1 (Homo sapiens, UniProt P53350); details: 0.1 µM; binder
BMX = BMX (Homo sapiens, UniProt P51813); details: 0.1 µM; binder
BMX, sequence (P51813 whole entry): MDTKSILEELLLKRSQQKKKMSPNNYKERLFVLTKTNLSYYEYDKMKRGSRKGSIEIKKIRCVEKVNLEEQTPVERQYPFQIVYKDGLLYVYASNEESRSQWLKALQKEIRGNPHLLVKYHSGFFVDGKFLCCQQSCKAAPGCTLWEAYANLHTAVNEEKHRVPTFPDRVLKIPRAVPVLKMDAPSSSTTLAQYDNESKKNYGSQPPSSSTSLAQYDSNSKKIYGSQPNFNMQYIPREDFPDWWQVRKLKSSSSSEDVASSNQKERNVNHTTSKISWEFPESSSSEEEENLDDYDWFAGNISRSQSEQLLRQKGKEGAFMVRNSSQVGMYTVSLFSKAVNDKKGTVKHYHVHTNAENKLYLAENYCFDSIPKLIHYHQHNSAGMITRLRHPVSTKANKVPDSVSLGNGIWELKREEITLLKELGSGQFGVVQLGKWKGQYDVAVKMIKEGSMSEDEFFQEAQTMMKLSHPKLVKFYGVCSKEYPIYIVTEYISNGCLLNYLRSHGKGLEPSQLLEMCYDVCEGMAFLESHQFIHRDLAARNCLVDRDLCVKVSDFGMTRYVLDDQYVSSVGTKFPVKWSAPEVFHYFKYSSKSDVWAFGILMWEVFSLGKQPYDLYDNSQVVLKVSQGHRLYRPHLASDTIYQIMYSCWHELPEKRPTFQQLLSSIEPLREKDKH

PCTK2 = PCTK2 (Homo sapiens, UniProt Q00537); details: 0.1 µM; binder
ABL1(T315I) = ABL1(T315I) (Homo sapiens, UniProt P00519, T315I); details: 0.1 µM, binder
ITK = ITK (Homo sapiens, UniProt Q08881); details: 0.1 µM; binder
ITK, sequence (Q08881 whole entry): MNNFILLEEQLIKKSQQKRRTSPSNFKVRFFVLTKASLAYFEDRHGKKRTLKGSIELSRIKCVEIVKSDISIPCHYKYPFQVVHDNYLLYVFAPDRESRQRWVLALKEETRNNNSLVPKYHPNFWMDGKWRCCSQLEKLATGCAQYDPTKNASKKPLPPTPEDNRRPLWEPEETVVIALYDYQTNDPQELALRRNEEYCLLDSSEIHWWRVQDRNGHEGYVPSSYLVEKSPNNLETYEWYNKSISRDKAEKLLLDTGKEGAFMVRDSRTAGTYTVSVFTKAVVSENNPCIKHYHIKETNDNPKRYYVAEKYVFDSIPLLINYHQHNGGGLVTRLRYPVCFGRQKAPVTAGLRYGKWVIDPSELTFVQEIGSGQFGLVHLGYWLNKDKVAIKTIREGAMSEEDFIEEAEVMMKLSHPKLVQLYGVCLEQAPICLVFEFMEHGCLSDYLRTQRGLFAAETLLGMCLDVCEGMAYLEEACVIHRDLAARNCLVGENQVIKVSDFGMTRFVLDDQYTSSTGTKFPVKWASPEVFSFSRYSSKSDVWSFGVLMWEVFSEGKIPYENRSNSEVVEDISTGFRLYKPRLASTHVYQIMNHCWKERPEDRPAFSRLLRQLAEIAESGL

CLK1 = CLK1 (Homo sapiens, UniProt P49759); details: 0.1 µM; binder
NEK2 = NEK2 (Homo sapiens, UniProt P51955); details: 0.1 µM; binder
PAK3 = PAK3 (Homo sapiens, UniProt O75914); details: 0.1 µM; binder
CAMK4 = CAMK4 (Homo sapiens, UniProt Q16566); details: 0.1 µM; binder
MARK1 = MARK1 (Homo sapiens, UniProt Q9P0L2); details: 0.1 µM; binder
YES = YES (Homo sapiens, UniProt P07947); details: 0.1 µM; binder
YES, sequence (P07947 whole entry): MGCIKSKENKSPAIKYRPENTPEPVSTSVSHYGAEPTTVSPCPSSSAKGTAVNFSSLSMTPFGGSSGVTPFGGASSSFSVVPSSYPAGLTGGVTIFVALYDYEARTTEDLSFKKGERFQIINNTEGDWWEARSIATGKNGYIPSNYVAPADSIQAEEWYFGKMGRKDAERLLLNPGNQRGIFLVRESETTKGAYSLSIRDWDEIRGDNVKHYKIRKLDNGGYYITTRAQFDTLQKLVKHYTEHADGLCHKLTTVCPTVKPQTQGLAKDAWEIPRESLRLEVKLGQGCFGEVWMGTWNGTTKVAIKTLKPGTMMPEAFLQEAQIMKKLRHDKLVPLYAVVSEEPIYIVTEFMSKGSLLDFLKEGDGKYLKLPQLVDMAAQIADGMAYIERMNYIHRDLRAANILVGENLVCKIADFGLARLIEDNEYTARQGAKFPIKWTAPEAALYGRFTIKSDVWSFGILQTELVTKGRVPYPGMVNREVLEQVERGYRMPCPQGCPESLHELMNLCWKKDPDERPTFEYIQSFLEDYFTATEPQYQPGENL

ZAP70 = ZAP70 (Homo sapiens, UniProt P43403); details: 0.1 µM; binder
NEK10 = NEK10 (Homo sapiens, UniProt Q6ZWH5); details: 0.1 µM; binder
PIK3CA = PIK3CA (Homo sapiens, UniProt P42336); details: 0.1 µM; binder

CNc1ncc2cc(-c3ccc(-c4cccc(C)n4)cc3Cl)c(=O)n(C[C@H]3OC[C@H](N)CO3)c2n1 [compound 6, G-5555]
Percent Control (DYRK1A): 100%
Percent Control (MEK6): 80%
Percent Control (DYRK2): 100%
Percent Control (BUB1): 100%
Percent Control (LRRK2): 83%
Percent Control (MAP3K15): 72%
Percent Control (WNK4): 96%
Percent Control (EPHA3): 99%
Percent Control (CSK): 100%
Percent Control (EGFR(G719S)): 100%
Percent Control (HIPK4): 95%
Percent Control (JNK1): 80%
Percent Control (DAPK1): 100%
Percent Control (ABL1(F317L); nonphosphorylated): 100%
Percent Control (ABL1(F317L); phosphorylated): 95%
Percent Control (MKNK1): 100%
Percent Control (STK39): 100%
Percent Control (CLK4): 97%
Percent Control (PLK1): 82%
Percent Control (BMX): 100%
Percent Control (PCTK2): 100%
Percent Control (ABL1(T315I); nonphosphorylated): 90%
Percent Control (ABL1(T315I); phosphorylated): 100%
Percent Control (ITK): 100%
Percent Control (CLK1): 100%
Percent Control (NEK2): 100%
Percent Control (PAK3): 100%
Percent Control (CAMK4): 100%
Percent Control (MARK1): 100%
Percent Control (YES): 100%
Percent Control (ZAP70): 100%
Percent Control (NEK10): 91%
Percent Control (PIK3CA): 94%
